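48-hour exposure; five concentrations; linearly interpolated endpoints. Here, GI50 denotes the concentration required for 50% inhibition of growth. At the TGI there is no net growth.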 Where only a bound is given, the exact number is not on record here.

Test in all cases: NCI tumour cell line growth inhibition, 48 h
The subject of test [1] is UACC-62 melanoma.
Test [2] relates to SF-268 CNS.
In test [3] the test system is HT29 colon.
The test system of test [4] is MOLT-4 leukemia.
The test system of test [5] is OVCAR-5 ovarian.
Test [6] concerns NCI-H460 lung.
The test system of test [7] is HCC-2998 colon.
Test [8] concerns HCT-116 colon.
Test [9] deals with M14 melanoma.
Test [10] relates to MDA-MB-231 breast.

Turning to `Cc1nc(-n2nc(-c3ccccc3)cc2-c2ccccc2)sc1C(=O)/C=C/c1cccc([N+](=O)[O-])c1`, the TGI in test [1] was 27.5 µM; in [2], 31.2 µM; in test [3] it was 28.1 µM; in test [4] it was 22.4 µM; in test [5], 50.9 µM; in [6], 92 µM. Further, in test [7], the TGI is 28.8 µM.

For `CCOC(=O)C(=O)Nc1nc2ccc(C)cc2s1`, the TGI in test [1], in test [8], in test [2], in [3], in test [4] and in test [9] was above 100 µM each time. Also, the TGI in [5], in [6] and in test [7] was above 100 µM in each case.

As to `CN1C/C(=C\c2ccc(C(=O)O)cc2)C(=O)/C(=C/c2ccc(C(=O)O)cc2)C1`, the TGI in test [1], in [8], in test [2], in test [3], in [4] and in test [9] was above 100 µM throughout. For the same compound, the TGI in [5], in test [6] and in test [7] was above 100 µM in each case.

For the compound `O=C(CCc1cc(-c2ccc(F)cc2)n[nH]1)N(Cc1ccccc1)Cc1ccccc1`, the TGI in [1], in test [8], in test [2], in test [3], in [4] and in [9] was above 100 µM throughout. Further, the TGI in [5], in [6] and in test [7] was above 100 µM throughout.

As for `O/N=C1\C(=C\c2ccc3c(c2)OCCO3)CCCC1C(NO)c1ccc2c(c1)OCCO2` (centres undefined), the TGI in test [1] is 31.7 µM; in [8] it was 40.4 µM; in test [2], 32 µM; in test [3], 32.3 µM; in test [4] it was 32.4 µM; in [9], 34.4 µM. Moreover, the results for the TGI in test [5], in [6] and in [7] were above 100 µM, 51.3 µM and 65.3 µM, respectively.

As to `COC(=O)C#CC(N)=O`, the TGI was above 100 µM in test [1]; above 100 µM in [8]; above 100 µM in [2]; above 100 µM in test [3]; 62.6 µM in test [4]; 42.2 µM in [9]. Also, the TGI in test [5], in test [6] and in [7] was above 100 µM throughout.

`CC1(C2CCC3(C)C(C2)C3Sc2ccccc2)OCCO1` (centres undefined): the TGI is 43.1 µM in [1]; 34 µM in test [8]; above 100 µM in test [2]; 41.4 µM in test [3]; 38.4 µM in test [4]; above 100 µM in test [9]. Moreover, the values for the TGI in test [5], in test [6] and in test [7] were 49.9 µM, 46.5 µM and 39.2 µM, respectively.

For the compound `COC(=N)CCCl`, the TGI in test [1], in test [8], in test [2], in test [3], in test [4] and in [9] was above 100 µM each time. Moreover, the TGI in test [5], in test [6] and in [7] was above 100 µM in each case.

Take `COc1cc([C@@H]2c3cc4c(cc3[C@@H](NCc3cccc(F)c3)C3COC(=O)[C@@H]32)OCO4)cc(OC)c1O` (some centres undefined): the TGI is 10.3 µM in test [1]; 20.1 µM in [8]; above 65 µM in test [2]; 29.5 µM in test [3]; 5.59 µM in test [4]; 40.3 µM in test [9]. The TGI in [5] stood at 51.3 µM; in test [6] it was 9.23 µM; in test [7], 20.9 µM.

For the compound `c1ccc(-c2cc3n4c(-c5ccccc5)nn(-c5ccccc5)c4cnc-3n2)cc1`, the GI50 in test [1] is above 50 µM; in [8] it was 3.61 µM; in test [2] it was 10.1 µM; in test [3], above 50 µM; in test [4], above 50 µM; in test [10], 16.4 µM. For the same compound, the GI50 in test [9] and in test [5] was above 50 µM each time. Besides, the TGI in [1], in [8], in test [2], in [3], in test [4] and in [10] was above 50 µM throughout. The TGI in test [9] and in [5] was above 50 µM throughout.

Turning to `N/C(CC(=O)NOC(=O)c1ccccc1)=N/OC(=O)c1ccccc1`, the TGI is above 100 µM in test [1]; above 100 µM in [8]; 75.1 µM in [2]; above 100 µM in test [3]; 75.9 µM in test [4]; above 100 µM in test [10]. In addition, the TGI in test [9], in test [5] and in test [6] was above 100 µM throughout.

As for `NC1=Nc2ccccc2Sc2ccccc21`, the TGI in test [1], in [8], in test [2], in test [3], in test [4] and in test [9] was above 100 µM throughout. Further, the TGI in test [5], in [6] and in test [7] was above 100 µM each time.

For `CCN1CCC(O)(/C=C/c2ccccc2)C(C(=O)/C=C/c2ccccc2)C1` (centres undefined), the TGI in test [1] amounted to 3.49 µM; in test [8], 3.08 µM; in test [2], 7.36 µM; in test [3] it was 3.73 µM; in [4], 5.38 µM; in test [9], 4.13 µM. Also, the TGI in test [5] came out at 8.38 µM; in test [6], 4.03 µM; in test [7], 4.01 µM.

`CC(=O)/C(=C/N1CCN(C(=O)c2ccco2)C1=S)C(=O)c1ccccc1`: the GI50 is 7.33 µM in test [1]; 6.39 µM in test [8]; 10.7 µM in test [2]; 16.9 µM in test [3]; 15.9 µM in [4]; 9.46 µM in test [10]. Besides, the values for the GI50 in [9] and in test [6] were 6.32 µM and 7.04 µM, respectively. Also, the TGI in test [1] is 16.9 µM; in test [8] it was 16.6 µM; in [2] it was 27 µM; in [3], above 50 µM; in test [4], above 50 µM; in test [10], 19.8 µM. Further, the TGI in [9] was 13.1 µM; in [6], 22.9 µM.

For `Cc1c(Cl)cccc1NC(=O)C(=O)c1c(O)c2ccc(O)cc2oc1=O`, the TGI in test [1], in test [8], in test [2], in test [3], in test [4] and in [9] was above 100 µM in each case. Also, the TGI in test [5], in test [6] and in test [7] was above 100 µM in each case.

With `CC(CC(=O)Nc1ccc(NC(=O)CC(C)N=NC(N)=O)cc1)N=NC(N)=O` (centres undefined), the TGI in test [1], in test [8], in [2], in test [3], in test [4] and in [9] was above 100 µM throughout. The TGI in [5], in test [6] and in test [7] was above 100 µM each time.

Turning to `Oc1ccc(O)c(-n2cccn2)c1-n1cccn1`, the TGI in [1] was above 100 µM; in test [2], above 100 µM; in [3] it was above 100 µM; in test [4], above 10 µM; in [9], above 100 µM; in [5], above 100 µM. Moreover, the TGI in test [6] and in test [7] was above 100 µM in each case.

`CN(C)C(=S)/N=c1\ss/c(=N\S(=O)(=O)c2ccccc2)n1C`: the TGI in test [1], in [8], in test [2], in test [3], in test [4] and in [9] was above 100 µM in each case. In addition, the TGI in test [5], in test [6] and in [7] was above 100 µM each time.

As to `CCCCCC/C(CC(=O)CCC(=O)NCCc1ccccc1)=N\Nc1ccc([N+](=O)[O-])cc1[N+](=O)[O-]`, the TGI in [1] was above 100 µM; in [8], above 100 µM; in [2], above 100 µM; in test [3], above 100 µM; in test [4], 60.3 µM; in test [9], above 100 µM. Further, the TGI in [5], in [6] and in test [7] was above 100 µM in each case.

With `Cc1ccc(C)c(NC(=O)C(=O)Nn2c(=S)[nH]c3ccccc3c2=O)c1`, the TGI in test [1], in [8], in test [2], in [3], in test [4] and in test [9] was above 100 µM each time. Also, the TGI in test [5], in test [6] and in test [7] was above 100 µM in each case.

With `C1CC[N-]CC1.CC(=N\O)/C(C)=N/O.CC(=N\O)/C(C)=N/O.C[CH-]C(C)O.[Co+2]`, the GI50 in test [1] is 15.6 µM; in test [8], 18.2 µM; in test [2] it was 29.4 µM; in test [3], 34.3 µM; in test [4], 17.4 µM; in test [10], 27.2 µM. Further, the GI50 in test [9] is 20.8 µM; in test [5], 35.1 µM; in test [6], 16.8 µM. Also, the TGI in [1] was 29 µM; in [8], 36.7 µM; in test [2], 95 µM; in test [3], above 100 µM; in [4], 42.2 µM; in test [10], 64 µM. The TGI was 45.1 µM in test [9], above 100 µM in test [5] and 30.5 µM in test [6].

Consider `O=[N+]([O-])c1ccc2nc(-c3ccc(Cl)cc3)[nH]c2c1`, for which the TGI was 42 µM in test [1]; 32 µM in [8]; 37.5 µM in [2]; 32.8 µM in [3]; above 100 µM in test [4]; 81.5 µM in test [10]. The TGI was found to be 34.5 µM in test [9] and 45.4 µM in test [6].

`CC/C(C)=C1\CCC(CN(C)C)C1=O` (centres undefined): the TGI in [1] is above 100 µM; in test [8] it was 31.7 µM; in test [2], 43.2 µM; in test [3], 46.5 µM; in [4] it was 70.9 µM; in [9] it was 33.6 µM. The results for the TGI in [5], in test [6] and in test [7] were 33.6 µM, 33.4 µM and 39.9 µM, respectively.

With `CCSc1nc(N)c2cnn(CC)c2n1`, the GI50 in [1] is 4.8 µM; in [8], 5.94 µM; in test [2], 23.3 µM; in test [4] it was 3.99 µM; in test [10], 2.08 µM; in test [9] it was 15.1 µM. The GI50 in [5] is 27.1 µM; in [6], 23.9 µM. The TGI is 24.5 µM in test [1]; 32.8 µM in [8]; 66.7 µM in [2]; above 100 µM in test [4]; 7.29 µM in [10]; 30.5 µM in test [9]. Besides, the TGI is above 100 µM in [5] and 78 µM in test [6].

`CCN(CC)CCNc1ccc([N+](=O)[O-])c2nc3ccc(OC)cc3c(N)c12`: the TGI was found to be 3.61 µM in [1]; 0.284 µM in test [8]; 3.63 µM in test [2]; 1.42 µM in [3]; 1.61 µM in test [4]; 3.25 µM in test [10]. Moreover, the TGI in [9] was determined as 2.97 µM; in [5], 3.15 µM; in [6], 2.67 µM.

`Nc1ccn(C2CC3OCC3O2)c(=O)n1` (centres undefined): the TGI in test [1], in test [8], in test [2], in test [3], in test [4] and in [10] was above 100 µM each time. The TGI in [9], in test [5] and in test [6] was above 100 µM throughout.

Regarding `O=C1C(=Cc2ccc(F)cc2)C(=O)c2ccccc21`, the TGI in test [1], in [8], in [2], in test [3], in test [4] and in [9] was above 100 µM in each case. Further, the TGI in test [5], in test [6] and in [7] was above 100 µM throughout.

For the origin of these results see PubChem BioAssay (NCI).
